In PubChem BioAssay (NCI):
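In this assay, cells in 96-well plates receive the compound at five concentrations for 48 hours. Endpoints are linearly interpolated between the surrounding concentrations. At the GI50, growth is halved. The concentration for full growth arrest is given as TGI.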

Legend:
Assay in all cases: NCI-60 cell line screen, 48 h
786-0 renal = system: 786-0 renal
HCC-2998 colon = system: HCC-2998 colon
HCT-116 colon = system: HCT-116 colon
HL-60(TB) leukemia = system: HL-60(TB) leukemia
HT29 colon = system: HT29 colon
KM12 colon = system: KM12 colon
M14 melanoma = system: M14 melanoma
RXF 393 renal = system: RXF 393 renal
SF-268 CNS = system: SF-268 CNS
SNB-19 CNS = system: SNB-19 CNS

Compound	GI50 (786-0 renal) [µM]	TGI (786-0 renal) [µM]	GI50 (HCC-2998 colon) [µM]	TGI (HCC-2998 colon) [µM]	GI50 (HCT-116 colon) [µM]	TGI (HCT-116 colon) [µM]	GI50 (HL-60(TB) leukemia) [µM]	TGI (HL-60(TB) leukemia) [µM]	GI50 (HT29 colon) [µM]	TGI (HT29 colon) [µM]	GI50 (KM12 colon) [µM]	TGI (KM12 colon) [µM]	GI50 (M14 melanoma) [µM]	TGI (M14 melanoma) [µM]	GI50 (RXF 393 renal) [µM]	TGI (RXF 393 renal) [µM]	GI50 (SF-268 CNS) [µM]	TGI (SF-268 CNS) [µM]	GI50 (SNB-19 CNS) [µM]	TGI (SNB-19 CNS) [µM]
CC1(C)C(=O)/C(=C\c2ccco2)C[C@]2(C)[C@H]3CC=C4[C@@H]5C[C@](C)(C(=O)O)CC[C@]5(C)CC[C@@]4(C)[C@]3(C)CC[C@@H]12	9.51	25	11	24.3	7.27	26.1	6.78	27.2	11.7	28.6	5.88	19.5	13.3	35.1	10.7	22.7	12.1	28.2	10.2	22.7
CN(C)CCNC(=O)c1cc([N+](=O)[O-])cc2ccc(-c3ccccc3)nc12		94.3		20.3		13.4		21.7		40		49.6		> 100		22.8		50		35.5
Cn1cc(NC(=O)c2cc(NC(=O)CCCCCC(=O)Nc3cc(C(=O)Nc4cc(C(=O)NCCC(=N)N)n(C)c4)n(C)c3)cn2C)cc1C(=O)NCCC(=N)N		> 100		> 100		> 100		> 100		> 100		> 100		> 100		> 100		> 100		> 100
NC(=O)c1ccccc1NC(=O)C(=O)C(c1cnc2ccc([N+](=O)[O-])cc2n1)[N+](=O)[O-] (stereo not given)		> 100		> 100		> 100		> 100		> 100		> 100		> 100		> 100		> 100		> 100
COc1ccc(N=Cc2ccc(N(CCC#N)CCC#N)cc2)cc1		> 100		> 88.1		> 100		> 100		> 100		> 100		> 100		> 100		> 100		> 100
CCc1ccc(C2=C(O)C(=O)C(c3ccc(CC)cc3)=C(O)C2=O)cc1	1.57	2.95	2.09	5.75	2.24	6	2.6	6.24	2.34	7.79	1.69	4.04	1.74	4.54	3.34	12.8	2.14	6.44	2.17	8.03
CCOC(=O)C(=O)Nc1c(C)cccc1CC		> 100		> 100		> 100		> 100		> 100		> 100		> 100		> 100		> 100		> 100
CCOC(=O)/C=C/c1ccc(C(=O)OCC)[nH]1	7.85	> 100	12.3	77.3	4.56	> 100	1.62	9.89	2.82	14.2	0.601	92.6	2.82	> 100	9.59	46.9	6.65	> 100	24.7	> 100
